Measurements as given in the NIST ThermoML archive (doi:10.1016/j.jct.2014.07.026).

Assay: mn = molality of the nth substance listed, in mol/kg
Settings: 100 kPa, Liquid; for mass density: Vibrating tube method; for speed of sound: Frequency=2 MHz, Linear variable-path acoustic interferometer

CCCCn1cc[n+](C)c1.C[C@H](N)C(=O)[O-] [3-butyl-1-methyl-1H-imidazolium L-alaninate] + O
Settings	mass density [kg/m3]	speed of sound [m/s]
293.15 K, m1 = 0.03078	999.145	–
293.15 K, m1 = 0.04697	999.63	–
293.15 K, m1 = 0.06646	1000.21	–
293.15 K, m1 = 0.08363	1000.72	–
293.15 K, m1 = 0.0978	1001.14	–
293.15 K, m1 = 0.1393	1002.34	–
293.15 K, m1 = 0.1674	1003.15	–
293.15 K, m1 = 0.2011	1004.09	–
293.15 K, m1 = 0.2513	1005.48	–
293.15 K, m1 = 0.2946	1006.67	–
293.15 K, m1 = 0.3312	1007.64	–
293.15 K, m1 = 0.383	1009.05	–
293.15 K, m1 = 0.4337	1010.33	–
298.15 K, m1 = 0.03078	997.956	–
298.15 K, m1 = 0.04697	998.423	–
298.15 K, m1 = 0.06346	–	1507.5
298.15 K, m1 = 0.06646	998.985	–
298.15 K, m1 = 0.08363	999.477	–
298.15 K, m1 = 0.0978	999.884	–
298.15 K, m1 = 0.1393	1001.05	–
298.15 K, m1 = 0.1428	–	1519.5
298.15 K, m1 = 0.1674	1001.83	–
298.15 K, m1 = 0.1848	–	1526.1
298.15 K, m1 = 0.2011	1002.75	–
298.15 K, m1 = 0.2434	–	1534.3
298.15 K, m1 = 0.2513	1004.09	–
298.15 K, m1 = 0.2946	1005.25	–
298.15 K, m1 = 0.2968	–	1541.6
298.15 K, m1 = 0.3312	1006.21	–
298.15 K, m1 = 0.3455	–	1549.5
298.15 K, m1 = 0.383	1007.55	–
298.15 K, m1 = 0.3934	–	1555.4
298.15 K, m1 = 0.4337	1008.88	–
298.15 K, m1 = 0.4399	–	1561.4
298.15 K, m1 = 0.4872	–	1567.8
298.15 K, m1 = 0.546	–	1576.5
303.15 K, m1 = 0.03078	996.541	–
303.15 K, m1 = 0.04697	996.999	–
303.15 K, m1 = 0.06646	997.554	–
303.15 K, m1 = 0.08363	998.04	–
303.15 K, m1 = 0.0978	998.438	–
303.15 K, m1 = 0.1393	999.57	–
303.15 K, m1 = 0.1674	1000.34	–
303.15 K, m1 = 0.2011	1001.23	–
303.15 K, m1 = 0.2513	1002.54	–
303.15 K, m1 = 0.2946	1003.67	–
303.15 K, m1 = 0.3312	1004.62	–
303.15 K, m1 = 0.383	1005.95	–
303.15 K, m1 = 0.4337	1007.21	–
308.15 K, m1 = 0.03124	994.926	–
308.15 K, m1 = 0.05075	995.469	–
308.15 K, m1 = 0.06032	995.732	–
308.15 K, m1 = 0.08315	996.374	–
308.15 K, m1 = 0.09789	996.775	–
308.15 K, m1 = 0.1399	997.892	–
308.15 K, m1 = 0.181	998.999	–
308.15 K, m1 = 0.2108	999.761	–
308.15 K, m1 = 0.2555	1000.94	–
308.15 K, m1 = 0.2996	1002.03	–
308.15 K, m1 = 0.3385	1003.03	–
308.15 K, m1 = 0.3814	1004.06	–
308.15 K, m1 = 0.4337	1005.37	–
313.15 K, m1 = 0.03124	993.094	–
313.15 K, m1 = 0.05075	993.624	–
313.15 K, m1 = 0.06032	993.886	–
313.15 K, m1 = 0.08315	994.504	–
313.15 K, m1 = 0.09789	994.894	–
313.15 K, m1 = 0.1399	996.012	–
313.15 K, m1 = 0.181	997.076	–
313.15 K, m1 = 0.2108	997.849	–
313.15 K, m1 = 0.2555	998.984	–
313.15 K, m1 = 0.2996	1000.07	–
313.15 K, m1 = 0.3385	1001.05	–
313.15 K, m1 = 0.3814	1002.07	–
313.15 K, m1 = 0.4337	1003.34	–

CC(C)[C@H](N)C(=O)[O-].CCCCn1cc[n+](C)c1 [1-butyl-3-methylimidazolium L-valinate] + O
Settings	mass density [kg/m3]	speed of sound [m/s]
293.15 K, m1 = 0.03333	999.132	–
293.15 K, m1 = 0.05233	999.647	–
293.15 K, m1 = 0.07111	1000.15	–
293.15 K, m1 = 0.08607	1000.55	–
293.15 K, m1 = 0.1001	1000.93	–
293.15 K, m1 = 0.138	1001.93	–
293.15 K, m1 = 0.1804	1003.02	–
293.15 K, m1 = 0.2187	1004	–
293.15 K, m1 = 0.2653	1005.21	–
293.15 K, m1 = 0.3295	1006.77	–
293.15 K, m1 = 0.3595	1007.51	–
293.15 K, m1 = 0.4046	1008.61	–
293.15 K, m1 = 0.4561	1009.85	–
298.15 K, m1 = 0.03333	997.952	–
298.15 K, m1 = 0.05233	998.454	–
298.15 K, m1 = 0.06361	–	1509.7
298.15 K, m1 = 0.07111	998.947	–
298.15 K, m1 = 0.08607	999.329	–
298.15 K, m1 = 0.1001	999.708	–
298.15 K, m1 = 0.1178	–	1519.6
298.15 K, m1 = 0.138	1000.66	–
298.15 K, m1 = 0.1494	–	1525.3
298.15 K, m1 = 0.1804	1001.72	–
298.15 K, m1 = 0.2009	–	1534.4
298.15 K, m1 = 0.2187	1002.66	–
298.15 K, m1 = 0.2467	–	1542.1
298.15 K, m1 = 0.2653	1003.87	–
298.15 K, m1 = 0.2965	–	1550.5
298.15 K, m1 = 0.3295	1005.34	–
298.15 K, m1 = 0.3434	–	1558.2
298.15 K, m1 = 0.3595	1006.08	–
298.15 K, m1 = 0.4046	1007.11	–
298.15 K, m1 = 0.4049	–	1568.3
298.15 K, m1 = 0.4496	–	1575.2
298.15 K, m1 = 0.4561	1008.32	–
298.15 K, m1 = 0.513	–	1584.9
298.15 K, m1 = 0.5714	–	1593.8
303.15 K, m1 = 0.03333	996.535	–
303.15 K, m1 = 0.05233	997.021	–
303.15 K, m1 = 0.07111	997.503	–
303.15 K, m1 = 0.08607	997.878	–
303.15 K, m1 = 0.1001	998.242	–
303.15 K, m1 = 0.138	999.178	–
303.15 K, m1 = 0.1804	1000.22	–
303.15 K, m1 = 0.2187	1001.13	–
303.15 K, m1 = 0.2653	1002.26	–
303.15 K, m1 = 0.3295	1003.73	–
303.15 K, m1 = 0.3595	1004.44	–
303.15 K, m1 = 0.4046	1005.44	–
303.15 K, m1 = 0.4561	1006.67	–
308.15 K, m1 = 0.03234	994.871	–
308.15 K, m1 = 0.05133	995.354	–
308.15 K, m1 = 0.06493	995.698	–
308.15 K, m1 = 0.08884	996.286	–
308.15 K, m1 = 0.1058	996.698	–
308.15 K, m1 = 0.1347	997.389	–
308.15 K, m1 = 0.181	998.492	–
308.15 K, m1 = 0.2182	999.371	–
308.15 K, m1 = 0.2583	1000.3	–
308.15 K, m1 = 0.3177	1001.66	–
308.15 K, m1 = 0.3591	1002.6	–
308.15 K, m1 = 0.4041	1003.61	–
308.15 K, m1 = 0.4561	1004.69	–
313.15 K, m1 = 0.03234	993.036	–
313.15 K, m1 = 0.05133	993.509	–
313.15 K, m1 = 0.06493	993.842	–
313.15 K, m1 = 0.08884	994.427	–
313.15 K, m1 = 0.1058	994.828	–
313.15 K, m1 = 0.1347	995.499	–
313.15 K, m1 = 0.181	996.579	–
313.15 K, m1 = 0.2182	997.425	–
313.15 K, m1 = 0.2583	998.325	–
313.15 K, m1 = 0.3177	999.623	–
313.15 K, m1 = 0.3591	1000.51	–
313.15 K, m1 = 0.4041	1001.5	–
313.15 K, m1 = 0.4561	1002.64	–
